From ChEMBL document CHEMBL4420073, “Small molecule inhibitors of MUC1 and methods of identifying the same” (2015)
Each block holds one compound with its values, some of them ahead of it. The source made the active and inactive calls. The rule behind the calls is not given here.

What was measured:
Mucin-1 (Homo sapiens) [1] = target: Mucin-1 (Homo sapiens) (UniProt P15941); assay: Inhibition of biotinylated MUC1-CD dimerization (unknown origin) assessed as decrease in oligomer formation at 100 uM by streptavidin-HRP based assay relative to control
Mucin-1 (Homo sapiens) [2] = target: Mucin-1 (Homo sapiens) (UniProt P15941); assay: Inhibition of MUC1 in human MCF7 cells assessed as decrease in MUC1 protein level in whole cell lysates at 75 uM incubated for 3 days by immunoblot analysis; format: subcellular; conditions: Lysate
MCF7 [3] = assay: Induction of apoptosis in human MCF7 cells assessed as caspase-9 cleavage at 75 uM incubated for 3 days by immunoblot analysis; format: functional, cell-based
BT-474 [4] = assay: Inhibition of colony formation in human BT474 cells assessed as decrease in colonies at 25 to 75 uM incubated for 2 weeks by crystal violet staining based assay; format: functional, cell-based
Mucin-1 (Homo sapiens) [5] = target: Mucin-1 (Homo sapiens) (UniProt P15941); assay: Inhibition of soluble unbound MUC1-CD dimerization (unknown origin) by immunoblot analysis; conditions: concentration not given here
MCF7 [6] = assay: Inhibition of colony formation in human MCF7 cells assessed as decrease in colonies at 50 to 75 uM incubated for 2 weeks by crystal violet staining based assay; format: functional
MCF-10A [7] = assay: Induction of apoptosis in immortalized human MCF10A cells assessed as caspase-9 cleavage at 75 uM incubated for 3 days by immunoblot analysis; format: functional, cell-based
Mucin-1 (Homo sapiens) [8] = target: Mucin-1 (Homo sapiens) (UniProt P15941); assay: Inhibition of MUC1-CD dimerization (unknown origin) expressed in HEK293 cells assessed as disruption of interaction between Flag-MUC1-CD and GFP-MUC1-CD by coimmunoprecipitation assay; format: cell-based
Mucin-1 (Homo sapiens) [9] = target: Mucin-1 (Homo sapiens) (UniProt P15941); assay: Inhibition of MUC1 nuclear import in human MCF7 cells assessed as decrease in nuclear MUC1-C levels at 75 uM incubated for 3 days by immunoblot analysis; format: cell-based
MCF7 [10] = assay: Reduction of MUC1 mRNA levels in human MCF7 cells at 75 uM incubated for 3 days by qRT-PCR analysis; format: functional, cell-based
MCF-10A [11] = assay: Induction of cell membrane integrity loss in immortalized human MCF10A cells at 75 uM incubated for 3 days by propidium iodide staining based flow cytometry; format: functional
MCF7 [12] = assay: Inhibition of colony formation in human MCF7 cells assessed as decrease in colonies at 25 uM incubated for 2 weeks by crystal violet staining based assay; format: functional, cell-based
HCC1937 = assay: Growth inhibition of human HCC1937 cells assessed as reduction in cell number up to 150 uM incubated for 3 days by MTS assay; format: functional, cell-based
Mucin-1 (Homo sapiens) [13] = target: Mucin-1 (Homo sapiens) (UniProt P15941); assay: Inhibition of MUC1 in human BT474 cells assessed as reduction in MUC1-C expression at 25 to 75 uM incubated for 3 days by immunoblot analysis; format: cell-based
BT-474 [14] = assay: Growth inhibition of human BT474 cells assessed as reduction in cell number up to 150 uM incubated for 3 days by MTS assay; format: functional, cell-based
Mucin-1 (Homo sapiens) [15] = target: Mucin-1 (Homo sapiens) (UniProt P15941); assay: Inhibition of MUC1-CD dimerization in human MCF10A cells assessed as reduction in MUC1-C levels at 50 to 100 uM incubated for 3 days by immunoblot analysis; format: cell-based
MCF-10A [16] = assay: Induction of cell membrane integrity loss in immortalized human MCF10A cells assessed as PI uptake level at 50 uM incubated for 3 days by propidium iodide staining based flow cytometry (reference value: 23%); format: functional
MCF-10A [17] = assay: Induction of cell membrane integrity loss in immortalized human MCF10A cells assessed as PI uptake level at 75 uM incubated for 3 days by propidium iodide staining based flow cytometry (reference value: 23%); format: functional
MCF7 [18] = assay: Growth inhibition in human MCF7 cells assessed as reduction in cell number at 75 uM incubated for 3 days in presence of MUC1 siRNA by MTS assay; format: functional, cell-based
MCF-10A [19] = assay: Growth inhibition of immortalized human MCF10A cells assessed as reduction in cell number up to 100 uM incubated for 3 days by MTS assay; format: functional, cell-based
MCF-10A [20] = assay: Induction of cell membrane integrity loss in immortalized human MCF10A cells assessed as PI uptake level at 100 uM incubated for 3 days by propidium iodide staining based flow cytometry (reference value: 23%); format: functional
MCF7 [21] = assay: Induction of cell membrane integrity loss in human MCF7 cells assessed as PI uptake level at 75 uM incubated for 3 days by propidium iodide staining based flow cytometry (reference value: 22%); format: functional

Chain of Mucin-1 (Homo sapiens) (P15941 24-1097 limits assumed): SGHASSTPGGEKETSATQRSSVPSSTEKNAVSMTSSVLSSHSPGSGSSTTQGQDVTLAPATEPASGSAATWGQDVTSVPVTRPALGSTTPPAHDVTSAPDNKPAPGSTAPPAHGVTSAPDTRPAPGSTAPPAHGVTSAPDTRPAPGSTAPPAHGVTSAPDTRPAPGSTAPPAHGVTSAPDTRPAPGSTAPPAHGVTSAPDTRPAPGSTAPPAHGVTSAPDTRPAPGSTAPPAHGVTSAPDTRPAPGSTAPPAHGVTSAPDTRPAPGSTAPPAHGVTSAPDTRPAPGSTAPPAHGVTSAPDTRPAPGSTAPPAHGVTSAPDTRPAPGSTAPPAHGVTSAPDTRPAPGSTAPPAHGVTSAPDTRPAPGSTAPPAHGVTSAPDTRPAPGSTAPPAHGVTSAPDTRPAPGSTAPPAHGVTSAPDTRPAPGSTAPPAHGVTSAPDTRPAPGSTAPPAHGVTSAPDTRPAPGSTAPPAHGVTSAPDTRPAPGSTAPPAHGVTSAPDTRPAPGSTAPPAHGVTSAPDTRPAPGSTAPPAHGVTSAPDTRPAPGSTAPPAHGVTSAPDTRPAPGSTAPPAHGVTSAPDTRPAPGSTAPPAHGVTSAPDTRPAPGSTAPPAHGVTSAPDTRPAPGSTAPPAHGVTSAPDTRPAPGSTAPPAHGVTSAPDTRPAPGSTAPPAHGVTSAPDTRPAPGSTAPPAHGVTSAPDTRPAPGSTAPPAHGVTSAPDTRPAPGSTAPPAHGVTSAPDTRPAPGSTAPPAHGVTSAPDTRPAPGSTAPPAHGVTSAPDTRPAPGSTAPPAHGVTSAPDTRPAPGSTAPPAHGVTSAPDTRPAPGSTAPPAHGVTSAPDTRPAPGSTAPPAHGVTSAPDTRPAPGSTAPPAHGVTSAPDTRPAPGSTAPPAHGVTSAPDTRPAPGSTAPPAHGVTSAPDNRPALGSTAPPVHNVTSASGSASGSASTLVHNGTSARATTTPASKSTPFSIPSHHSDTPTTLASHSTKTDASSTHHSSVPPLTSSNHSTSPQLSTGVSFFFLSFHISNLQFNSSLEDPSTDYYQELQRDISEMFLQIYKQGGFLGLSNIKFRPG
Chain of Mucin-1 (Homo sapiens) (P15941 1098-1255 limits assumed): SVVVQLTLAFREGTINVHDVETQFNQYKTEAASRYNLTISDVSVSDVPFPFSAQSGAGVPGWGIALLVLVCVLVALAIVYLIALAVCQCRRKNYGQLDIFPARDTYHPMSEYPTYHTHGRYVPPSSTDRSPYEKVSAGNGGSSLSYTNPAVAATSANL

inhibition (Mucin-1 (Homo sapiens) [1]): > 50%
SMILES: CCCc1cc2c(=O)c(-c3ccc4c(c3)OCCCO4)c(C)oc2cc1OC

inhibition (Mucin-1 (Homo sapiens) [1]): > 50%
SMILES: COc1ccc2c(=O)c(-c3cscn3)c(C(F)(F)F)oc2c1

inhibition (Mucin-1 (Homo sapiens) [2]): Active | inhibition (Mucin-1 (Homo sapiens) [5]): 100% | inhibition (Mucin-1 (Homo sapiens) [8]): Active | inhibition (Mucin-1 (Homo sapiens) [9]): Active | inhibition (Mucin-1 (Homo sapiens) [13]): Active | inhibition (Mucin-1 (Homo sapiens) [15]): Active
SMILES: O=c1cc(-c2ccc(O)cc2)oc2cc(O)cc(O)c12 [APIGENIN]
Activity (MCF7 [3]): Active | inhibition (BT-474 [4]): Active | inhibition (INH) (MCF7 [6]): 100% | Activity (MCF-10A [7]): Active | Activity (MCF7 [10]): Active | Activity (MCF-10A [11]): Active | inhibition (MCF7 [12]): Active | growth inhibition (GI) (HCC1937): inactive | growth inhibition (GI) (BT-474 [14]): Active | Activity (MCF-10A [16]): 81% | Activity (MCF-10A [17]): 98% | growth inhibition (GI) (MCF7 [18]): inactive | growth inhibition (GI) (MCF-10A [19]): Active | Activity (MCF-10A [20]): 96% | Activity (MCF7 [21]): 64%
